Patent US10647990B2, “Rice high temperature resistance gene and use in crop breeding resistance to high temperature thereof” (SHANGHAI INSTITUTES FOR BIOLOGICAL SCIENCES, CHINESE …, priority 2014, dated 2020)
Entries after “also recorded” stand apart in the source; their conditions may differ. Peptide text beside a SMILES is read from it. * marks the point of attachment. Cbz = O=C(OCc1ccccc1)*

Tested on: rice
Experiment: MG132 treatment of rice during high temperature treatment (blocking the 26S proteasome degradation pathway)
Assay type: in vivo, Oryza sativa
Conditions: under high temperature stress; MG132 0 μM, 50 μM, 100 μM; FIG. 6G, H

CC(C)C[C@@H](C=O)NC(=O)[C@H](CC(C)C)NC(=O)[C@H](CC(C)C)NC(=O)OCc1ccccc1 [MG132] (Cbz-Leu-Leu-Leu-aldehyde)
high temperature resistance of rice: high temperature sensitive phenotype; also recorded: can reduce the high temperature resistance of rice
